From article PMC6851853, “Characterization of P. falciparum dipeptidyl aminopeptidase 3 specificity identifies differences in amino acid preferences between peptide‐based substrates and covalent inhibitors” (The Febs Journal, 2019)

Tests used:
DPAP3 [1] = biological target: T1, DPAP3 (Plasmodium falciparum, UniProt Q8I1Y2); assay: biochemical; set-up: gene PF3D7_0404700; recombinant, baculovirus/SF9 insect cells, purified from culture supernatant by ion exchange, Ni-NTA and size exclusion; active-site titrated; continuous fluorogenic assay, time-dependent inactivation of 0.2 nM recombinant DPAP3, Met-nLeu(o-Bzl)-ACC 2.2 uM; conditions: for kinact: read-out: DPAP3 / k inact ·10^3; for kinact/KI: read-out: DPAP3 / k inact/K i ·10^−3 (M ^−1·s^−1)
Description: The data were analysed according to the irreversible inhibition model shown in Eqn. 1. First, the progress curves (fluorescent units vs. time) were fitted to Eqn. 5, where F is the measured fluorescence at time t, F 0 the initial fluorescence, V 0 the initial turnover rate, and k obs the observed […] rate constant of inhibition measured at each inhibitor concentration 64. […] The inhibition constants are reported in Fig. 3C and Table 2 (See also Fig. S2 for representative fits). Only one inhibitor, containing an amino‐1‐methyl‐benzyl (Amb) group in P2, was not able to inhibit DPAP3 in a time‐dependent manner under our assay conditions (Fig. 3D). This is probably due to the fact that this extended and rigid P2 AA (Fig. 3E) might prevent proper positioning of the [compound left out] group into the active site of DPAP3 to allow covalent modification of the catalytic cysteine. For this compound, a K i value for reversible inhibition was measured.
Target sequence in this assay (Q8I1Y2 entry or part of it): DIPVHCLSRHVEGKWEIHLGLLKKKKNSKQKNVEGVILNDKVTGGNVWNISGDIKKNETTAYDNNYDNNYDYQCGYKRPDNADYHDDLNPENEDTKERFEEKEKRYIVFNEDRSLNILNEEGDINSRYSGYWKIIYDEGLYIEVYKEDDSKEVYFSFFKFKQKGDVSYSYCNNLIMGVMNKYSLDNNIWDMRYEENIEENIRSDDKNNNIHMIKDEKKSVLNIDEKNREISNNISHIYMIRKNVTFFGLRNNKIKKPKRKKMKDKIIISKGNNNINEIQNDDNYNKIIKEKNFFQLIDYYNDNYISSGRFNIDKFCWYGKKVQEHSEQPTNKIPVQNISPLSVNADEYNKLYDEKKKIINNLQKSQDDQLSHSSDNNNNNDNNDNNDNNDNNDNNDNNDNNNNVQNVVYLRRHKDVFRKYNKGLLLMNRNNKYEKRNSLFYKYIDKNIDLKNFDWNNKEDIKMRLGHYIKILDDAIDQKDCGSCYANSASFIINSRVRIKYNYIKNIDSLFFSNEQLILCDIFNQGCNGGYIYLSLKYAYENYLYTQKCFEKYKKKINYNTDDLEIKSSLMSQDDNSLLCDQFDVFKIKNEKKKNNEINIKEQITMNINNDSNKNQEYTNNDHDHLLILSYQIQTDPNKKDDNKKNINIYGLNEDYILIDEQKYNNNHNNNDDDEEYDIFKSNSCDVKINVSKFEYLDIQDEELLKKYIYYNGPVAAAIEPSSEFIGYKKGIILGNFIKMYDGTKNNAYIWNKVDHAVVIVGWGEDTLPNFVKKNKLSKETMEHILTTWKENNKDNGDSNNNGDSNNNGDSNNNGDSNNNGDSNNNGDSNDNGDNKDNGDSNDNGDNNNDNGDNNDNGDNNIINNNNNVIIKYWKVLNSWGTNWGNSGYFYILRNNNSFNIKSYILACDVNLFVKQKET

DPAP1 = biological target: T2, DPAP1 (Plasmodium falciparum, UniProt Q8IIJ9); assay: biochemical; set-up: species or system P. falciparum parasite lysate; continuous fluorogenic assay, time-dependent inactivation of DPAP1 in diluted parasite lysate, Pro-Arg-AMC 20 uM; conditions: for kinact: read-out: DPAP1 / k inact ·10^3; for kinact/KI: read-out: DPAP1 / k inact/K i ·10^−3 (M ^−1·s^−1)
T2 sequence (Q8IIJ9 28-209): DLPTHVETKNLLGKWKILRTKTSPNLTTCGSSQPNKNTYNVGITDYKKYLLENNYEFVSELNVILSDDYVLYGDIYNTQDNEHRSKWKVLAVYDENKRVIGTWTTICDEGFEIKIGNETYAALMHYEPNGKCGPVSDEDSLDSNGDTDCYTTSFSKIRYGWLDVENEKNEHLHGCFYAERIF
T2 sequence (Q8IIJ9 370-599): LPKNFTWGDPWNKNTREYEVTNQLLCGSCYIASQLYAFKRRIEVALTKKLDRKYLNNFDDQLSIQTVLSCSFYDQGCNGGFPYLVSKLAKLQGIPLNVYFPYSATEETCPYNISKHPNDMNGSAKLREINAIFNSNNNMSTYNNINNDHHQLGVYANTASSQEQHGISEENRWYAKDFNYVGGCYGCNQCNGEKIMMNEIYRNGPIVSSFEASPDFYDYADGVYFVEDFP
T2 sequence (Q8IIJ9 600-700): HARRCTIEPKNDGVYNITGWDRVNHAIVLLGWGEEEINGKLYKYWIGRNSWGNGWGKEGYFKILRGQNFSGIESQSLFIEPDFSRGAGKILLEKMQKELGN
Description: (§1) Inhibition of DPAP1 was directly measured in parasite lysates diluted 100‐fold in assay buffer using the DPAP1‐selective substrate Pro‐Arg‐AMC 42; 0.2 nM of […] was used for these inhibition studies. Note that because DPAP1 inhibition was directly measured in parasite lysates, inhibitors might have been partially inactivated through the action of aminopeptidases present in the lysates during the course of the assay. Therefore, the potency of the inhibitors might have been underestimated. […] The data were analysed according to the irreversible inhibition model shown in Eqn. 1. First, the progress curves (fluorescent units vs. time) were fitted to Eqn. 5, where F is the measured fluorescence at time t, F 0 the initial fluorescence, V 0 the initial turnover rate, and k obs the observed […] rate constant of inhibition measured at each inhibitor concentration 64.

CatC (bovine) = biological target: T3, CatC (bovine) (Bos taurus, UniProt Q3ZCJ8); assay: biochemical; set-up: continuous fluorogenic assay, time-dependent inactivation of 0.2 nM CatC, Gly-Arg-AMC 15 uM; conditions: for kinact: read-out: CatC / k inact ·10^3; for kinact/KI: read-out: CatC / k inact/K i ·10^−3 (M ^−1·s^−1)
T3 construct: gene CTSC; native, purified to homogeneity from bovine spleen
Description: as §1

DPAP3 [2] = biological target: T1, DPAP3; assay: cell-based; set-up: native enzyme in live parasites (mature schizonts); species or system P. falciparum mature schizonts in red blood cells; competitive activity-based probe FY01 labelling in intact parasites, in-gel fluorescence densitometry; conditions: live parasites, 30 min pretreatment
Description: Live parasites were treated with different concentrations of inhibitor for 30 min, and the residual level of DPAPs and FPs activities were labelled with FY01 and quantified by densitometry (Fig. 6A). […] Compounds with a P2 Trp or Tyr(NO2) are highly specific for DPAP3 in intact parasites. […] Inhibitors need to cross four membranes to reach DPAP3: the RBC, parasitophorous vacuole and parasite plasma membranes, plus the membrane of the apical organelle where DPAP3 resides 21. (The parasitophorous vacuole is a membrane‐bound structure within which the parasite grows and multiplies isolated from the RBC cytosol.) However, crossing of the parasitophorous vacuole membrane is not likely to be a limiting factor to reach DPAP3 since this membrane is generally permeable to small molecules. It is also likely that the apparent increased potency of Trp‐hPG‐VS in live parasites might be due to its accumulation into the DPAP3 acidic organelle via protonation of its free amine. However, we predict that this lysosomotropic effect likely occurs for all DPAP inhibitors presented here.  Figure 6 Selective inhibition of DPAP1 or DPAP3 in live parasites. Intact mature schizonts were pretreated for 30 min with increasing concentrations of inhibitor followed by 1 h treatment with FY01. Samples were then run in an SDS/PAGE gel and the in‐gel fluorescence measured using a fluorescence scanner. (A) Representative gel images obtained for each of the inhibitors. Fluorescent bands corresponding to the different cysteine proteases labelled by the probe are indicated with arrowheads (DPAP3, red; FPs, green; DPAP1, blue). (B) The fluorescence intensity of each of the indicated bands was quantified by densitometry using ImageJ, and the fluorescence values normalized to the DMSO control. […] Three technical replicates were performed; dose responses for a representative replicate are shown.
Target sequence in this assay (Q8I1Y2 entry or part of it): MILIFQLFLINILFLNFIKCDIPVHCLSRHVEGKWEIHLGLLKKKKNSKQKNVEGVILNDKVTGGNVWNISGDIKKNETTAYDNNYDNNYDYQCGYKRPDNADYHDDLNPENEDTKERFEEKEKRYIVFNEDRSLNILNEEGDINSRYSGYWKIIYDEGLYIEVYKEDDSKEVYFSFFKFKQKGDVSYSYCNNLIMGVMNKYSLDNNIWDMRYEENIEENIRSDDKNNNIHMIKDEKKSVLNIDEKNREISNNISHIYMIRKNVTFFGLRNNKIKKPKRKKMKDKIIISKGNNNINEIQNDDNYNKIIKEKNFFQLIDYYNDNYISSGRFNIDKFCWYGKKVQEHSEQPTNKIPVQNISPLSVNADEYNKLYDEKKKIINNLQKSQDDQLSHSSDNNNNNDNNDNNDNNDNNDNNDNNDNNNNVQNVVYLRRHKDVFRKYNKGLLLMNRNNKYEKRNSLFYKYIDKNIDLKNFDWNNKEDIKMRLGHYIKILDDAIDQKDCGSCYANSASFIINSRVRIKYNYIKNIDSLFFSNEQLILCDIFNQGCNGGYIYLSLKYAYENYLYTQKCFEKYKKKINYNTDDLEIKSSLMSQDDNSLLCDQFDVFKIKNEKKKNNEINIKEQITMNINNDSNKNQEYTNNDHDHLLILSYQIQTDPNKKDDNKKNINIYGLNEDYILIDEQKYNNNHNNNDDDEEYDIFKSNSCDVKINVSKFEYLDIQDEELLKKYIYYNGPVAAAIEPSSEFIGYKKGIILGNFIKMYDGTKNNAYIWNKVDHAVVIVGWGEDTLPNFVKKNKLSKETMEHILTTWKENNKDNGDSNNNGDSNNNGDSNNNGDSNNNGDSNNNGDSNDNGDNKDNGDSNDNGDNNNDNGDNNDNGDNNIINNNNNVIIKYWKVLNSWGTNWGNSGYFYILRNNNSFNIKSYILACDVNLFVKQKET

T3 sequence (Q3ZCJ8 25-134): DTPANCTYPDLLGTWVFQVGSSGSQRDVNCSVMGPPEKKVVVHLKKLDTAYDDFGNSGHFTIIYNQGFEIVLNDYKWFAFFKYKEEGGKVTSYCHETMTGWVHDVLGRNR
T3 sequence (Q3ZCJ8 231-394): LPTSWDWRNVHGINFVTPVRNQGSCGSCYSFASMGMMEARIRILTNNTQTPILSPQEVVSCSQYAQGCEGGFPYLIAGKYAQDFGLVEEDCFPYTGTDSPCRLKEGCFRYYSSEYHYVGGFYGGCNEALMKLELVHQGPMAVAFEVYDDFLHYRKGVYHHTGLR
T3 sequence (Q3ZCJ8 395-463): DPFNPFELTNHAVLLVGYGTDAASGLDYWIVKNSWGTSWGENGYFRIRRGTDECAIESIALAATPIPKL

Row | SMILES | kinact (DPAP3 [1]) [s⁻¹] | kinact/KI (DPAP3 [1]) [M⁻¹ s⁻¹] | kinact (DPAP1) [s⁻¹] | kinact/KI (DPAP1) [M⁻¹ s⁻¹] | kinact (CatC (bovine)) [s⁻¹] | kinact/KI (CatC (bovine)) [M⁻¹ s⁻¹] | IC50 (DPAP3 [2]) [nM]
1 | N[C@@H](Cc1ccc2ccccc2c1)C(=O)N[C@H](/C=C/S(=O)(=O)c1ccccc1)CCc1ccccc1 [2Nal‐hPhe‐VS] | 0.00259 ± 7e-05 | 10200 ± 500 | 0.0067 ± 0.0002 | 200 ± 5 | 0.0037 ± 0.0002 | 900 ± 100 | 
2 | N[C@@H](Cc1ccc2ccccc2c1)C(=O)N[C@H](/C=C/S(=O)(=O)c1ccccc1)CCCCOCc1ccccc1 [2Nal‐nLeu(o‐Bzl)‐VS] | 0.006 ± 0.0007 | 2200 ± 300 | 0.005 ± 0.0017 | 190 ± 50 | 0.0024 ± 0.0006 | 1370 ± 90 | 
3 | N[C@H](Cc1c[nH]c2ccccc12)C(=O)N[C@H](/C=C/S(=O)(=O)c1ccccc1)CCc1ccccc1 [D‐Trp‐hPhe‐VS] | 0.0017 ± 0.0006 | 320 ± 80 | 0.0027 ± 0.0002 | 26 ± 1 | 0.0026 ± 0.0001 | 620 ± 70 | 
4 | N[C@H](Cc1c[nH]c2ccccc12)C(=O)N[C@H](/C=C/S(=O)(=O)c1ccccc1)CCCCOCc1ccccc1 [D‐Trp‐nLeu(o‐Bzl)‐VS] | 0.0036 ± 0.0002 | 470 ± 10 | 0.0055 ± 0.0007 | 44 ± 2 | 0.00197 ± 6e-05 | 1700 ± 100 | 2700 ± 1600
5 | N[C@H](C(=O)N[C@H](/C=C/S(=O)(=O)c1ccccc1)CCc1ccccc1)C1Cc2ccccc2C1 [Igl‐hPhe‐VS] | 0.0021 ± 0.0007 | 205000 ± 22000 | 0.0027 ± 0.0001 | 500 ± 30 | 0.0058 ± 0.0003 | 18000 ± 3000 | 
6 | N[C@H](C(=O)N[C@H](/C=C/S(=O)(=O)c1ccccc1)CCCCOCc1ccccc1)C1Cc2ccccc2C1 [Igl‐nLeu(o‐Bzl)‐VS] | 0.0056 ± 0.0004 | 35000 ± 4500 | 0.0041 ± 0.0002 | 860 ± 50 | 0.00148 ± 6e-05 | 135000 ± 14000 | 
7 | N[C@@H](Cc1c[nH]c2ccccc12)C(=O)N[C@H](/C=C/S(=O)(=O)c1ccccc1)CCc1ccccc1 [L‐Trp‐hPhe‐VS] | 0.0033 ± 0.0004 | 52000 ± 7000 | 0.0017 ± 0.0001 | 3200 ± 300 | 0.0022 ± 9e-05 | 131000 ± 15000 | 
